Measurements from patent publication US11401516B2, “Channel modulators” (AUCKLAND UNISERVICES LIMITED, priority 2014, dated 2022).

Experiments:
[1] = molecular target: T1, hemichannel activity in HCMVEC cells (Homo sapiens, UniProt P17302); experiment: Whole-cell voltage clamp, hCMVEC cells; type: cell-based; conditions: for hemichannel activity: 50 μM
T1 construct: isolated human cerebral microvascular endothelial cells (hCMVEC); endogenous in cells; host or cells: hCMVEC
Procedure: Whole-cell voltage clamp studies were conducted on connexin deficient HeLa cells, Connexin43 transfected HeLa cells and isolated human cerebral microvascular endothelial cells (hCMVEC).
HCMVEC Cells were placed into an extracellular artificial cerebral spinal fluid solution containing (in mM): 144 NaCl, 3.3 KCl, 1.8 CaCl2, 1.8 MgCl2, 10 mM glucose, pH: 7.385 at temperature 37° C. The intracellular pipette solution contained (in mM): 130 KCl, 10 sodium aspartate, 0.26 CaCl2, 2 EGTA, 5 tetraethylammonium-Cl, 1 MgCl2,3 MgATP, 5 Hepes at pH 7.2; and was kept on ice to prevent MgATP breakdown. Pipette resistance was 3.4MΩ with seal resistance=1.3 GΩ. Voltage and perfusion protocols are conducted simultaneously, with cells continuously perfused. Recordings for analysis were taken before Tonabersat perfusion, during and after washout. For channel block studies, 50 μM Tonabersat was washed in for three mins prior to recording, and subsequently washed out three mins before taking the washout recordings.

[2] = tested on: Cx43 hemichannel and pannexin channel mediated ATP release from hCMVEC cells; experiment: In vitro ischaemia injury-reperfusion ATP assay; type: cell-based, human; conditions: 2-hour injury then 2-hour reperfusion; 100 μM CBX, 100 μM Peptide5, 1 mM Probenecid, 10 μM Tonabersat
Procedure: (§1) Using an in vitro ischemia injury model, the Cx43 hemichannel and pannexin channel mediated ATP release was differentiated using the connexin hemichannel blocking mimetic peptide5 at 100 μM concentration (S. J. O'Carroll, et al., Cell communication & adhesion 15, 27 (May, 2008)) and 1 mM Probenecid (W. R. Silverman et al., The Journal of biological chemistry 284, 18143 (Jul. 3, 2009)).
Human cerebral microvascular endothelial cells (hCMVEC) were trypsinised (TrypLE Express, Life technologies) and plated at a density of 0.025×10^6 cells per well in a collagen-coated 12-well plate (1 μg/cm2) a day prior to the experiment. Cells were incubated in culture medium overnight. Hypoxic, acidic, ion-shifted Ringer injury solution that mimics ionic concentrations and acid-base shifts of the interstitial space in hypoxic-ischemic brains (A. Bondarenko, et al., Glia 34, 143 (Apr. 15, 2001)) was used to trigger hemichannel opening. […] ATP concentration in the samples was determined using a Luciferin/luciferase bioluminescence reaction (ATP Determination Kit, Molecular Probes) and detected using a luminescence plate reader (VICTOR X, Perkin Elmer #2030-0010). Standard curves were generated in each experiment from an ATP standard (500 nM) to quantify the concentration of ATP in the test samples. […]

[3] = tested on: Cx43 hemichannel and pannexin channel mediated ATP release from hCMVEC cells; experiment: In vitro ischaemia injury ATP assay; type: cell-based, human; conditions: for ATP release, percentage of the injury control: 2-hour injury
Procedure: as §1
Human cerebral microvascular endothelial cells (hCMVEC) were trypsinised (TrypLE Express, Life technologies) and plated at a density of 0.025×10^6 cells per well in a collagen-coated 12-well plate (1 μg/cm2) a day prior to the experiment. Cells were incubated in culture medium overnight. Hypoxic, acidic, ion-shifted Ringer injury solution that mimics ionic concentrations and acid-base shifts of the interstitial space in hypoxic-ischemic brains (A. Bondarenko, et al., Glia 34, 143 (Apr. 15, 2001)) was used to trigger hemichannel opening. The injury solution (in mM): 38 NaCl, 13 NaHCO3, 3 Na-gluconate, 65 K-gluconate, 38 NMDG-Cl, 1 NaH2PO4, 1.5 MgCl2, was bubbled in N2 gas (>99% purity, 20 L/min) for 5 minutes and pH adjusted to 6.6 using 5 M HCl. Control solution that mimics physiological conditions contained (in mM): 124 NaCl, 3 KCl, 26 NaHCO3, […], 1 NaH2PO4, 1.3 CaCl2, 1.5 MgCl2, and 10 Glucose, and pH 7.4 was adjusted using 5 M HCl (Bondarenko, 2001). […] Following a 2-hour injury the solutions were immediately placed on ice. In the injury and reperfusion model, hCMVEC cells were incubated in 500 μL of normal solution or injury solution for 2 hours at 37° C. in 95% O2 and 5% CO2. Following 2 hour injury, the solutions were discarded and replaced with 500 μL of the normal solution, or Tonabersat (10 μM) dissolved in normal solution, and were incubated for 2 hours at 37° C. in 95% O2 and 5% CO2. These solutions were also then immediately placed on ice. Peptide5 (100 μM)+/−Probenecid (1 mM) were used as controls for both injury and injury-reperfusion models. ATP concentration in the samples was determined using a Luciferin/luciferase bioluminescence reaction (ATP Determination Kit, Molecular Probes) and detected using a luminescence plate reader (VICTOR X, Perkin Elmer #2030-0010). Standard curves were generated in each experiment from an ATP standard (500 nM) to quantify the concentration of ATP in the test samples. The data is presented as mean±standard error relative to the injury or injury-reperfusion control. Statistically significant differences between samples were identified using one-way analysis of variance and Tukey's multiple comparisons test.

T1 sequence (P17302 2-382): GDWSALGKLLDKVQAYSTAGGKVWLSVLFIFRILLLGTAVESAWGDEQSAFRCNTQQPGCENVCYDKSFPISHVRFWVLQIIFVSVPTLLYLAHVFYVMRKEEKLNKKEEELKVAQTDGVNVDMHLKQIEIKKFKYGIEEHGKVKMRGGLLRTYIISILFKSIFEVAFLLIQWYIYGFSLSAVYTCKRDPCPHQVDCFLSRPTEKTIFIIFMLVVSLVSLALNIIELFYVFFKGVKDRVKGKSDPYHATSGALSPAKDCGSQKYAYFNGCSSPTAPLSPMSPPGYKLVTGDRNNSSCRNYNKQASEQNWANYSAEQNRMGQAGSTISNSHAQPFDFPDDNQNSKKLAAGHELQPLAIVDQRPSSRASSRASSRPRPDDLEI

CC(=O)c1ccc2c(c1)[C@H](NC(=O)c1ccc(F)c(Cl)c1)[C@H](O)C(C)(C)O2 [Tonabersat, N-[(3S,4S)-6-acetyl-3-hydroxy-2,2-dimethyl-3,4-dihydrochromen-4-yl]-3-chloro-4-fluorobenzamide]
time to block connexin hemichannels [1]: within one minute
hemichannel activity ([1]; after three minutes of washout): some activity returning after washout
hemichannel activity ([1]; during incubation): almost completely abolishes hemichannel activity
ATP release, percentage of the injury-reperfusion (IR) control [2]: 68.9±6.9%
difference between CBX and 10 μM Tonabersat in 1 mM Probenecid [3]: 14.9±4%
ATP release, percentage of the injury control ([3]; 0.1 μM Tonabersat in combination with 1 mM Probenecid): 85.9±2.4%
ATP release from hCMVEC cells ([3]; 0.1 μM to 100 μM Tonabersat in the absence of 1 mM Probenecid): did not reduce ATP release
ATP release, percentage of the injury control ([3]; 1 μM Tonabersat in combination with 1 mM Probenecid): 75.9±2.3%
ATP release, percentage of the injury control ([3]; 10 μM Tonabersat in combination with 1 mM Probenecid): 58.5±1.9%
ATP release, percentage of the injury control ([3]; 100 μM Tonabersat in combination with 1 mM Probenecid): 70.5±3.9%
difference in inhibition, 10 μM versus 100 μM Tonabersat ([3]; each with 1 mM Probenecid): 12.1±3.2%
